Where “and” joins values, the source holds several entries; their conditions need not be identical. Identical values can stand only once. Like-named read-outs stand apart in the source and are kept apart here.
Tests used:
[1] = Study B: plasma pharmacokinetics after single-dose i.v. telavancin 10 mg/kg in subjects with varying renal function; settings: for half-life / AUC(0-inf) / Cmax / clearance: both, human, in vivo, iv; for half-life / AUC(0-inf) / Cmax / clearance / increase in systemic exposure (AUC0–∞) compared with healthy subjects: 10 mg/kg; for AUC(0-inf): AUC0–∞; for Cmax: C max (maximum plasma concentration); for clearance: CL (clearance)
Protocol: Plasma pharmacokinetic parameters were calculated as previously described.

[2] = cited from earlier work
[3] = Study B: urinary excretion and renal clearance; settings: mean ± SD; for CLR (renal clearance): CLR = Ae ÷ AUC; for dose excreted: human, in vivo, iv, 10 mg/kg; for Ae0–∞ (amount excreted in the urine extrapolated to infinity): normalized to a telavancin dose of 10 mg/kg
Protocol: Aliquots were collected and stored at −70 °C or lower.
The inter- and intra-assay precision and accuracy of quality controls and standards during the validation was within 7.6 % in plasma and 10.2 % in urine.
Plasma pharmacokinetic parameters were calculated as previously described [7]. The CL reported for ESRD is the CL for the subjects (i.e., includes residual clearance and any dialysis clearance).
Dialyzers used included the PSN 210 and the 2K 2.5 Dialysate (both Gambro). The dialysate flow rate was 800 mL/min, and blood flow rates in patients ranged from 300 to 500 mL/min. […] In study B, the percentage of the dose excreted in urine was calculated as Ae0–t% = Ae0–t/dose × 100 % and Ae0–∞% = Ae0–∞/dose × 100 %.

plasma proteins = assay: Plasma protein binding by equilibrium dialysis (study A pre-infusion plasma); assay type: in vitro ADME, human; settings: in vitro equilibrium dialysis; for Protein binding (%): pre-infusion plasma, telavancin 50 μg/ml spiked with 1 μg/ml [14C]telavancin, mean ± SD
Protocol: The percent of protein binding was calculated as follows: %bound=donor−receptor÷donor×100%,and%unbound=receptor÷donor×100%, where donor = plasma side concentration and receptor = buffer side concentration.

[4] = Study A: plasma pharmacokinetics after single-dose i.v. telavancin 7.5 mg/kg in subjects with varying renal function
From the text: (§1) Subjects included men and non-pregnant women and, in study A or B, respectively, were ≥18 years or 20–79 years of age with a body mass index of 18–36 or 18.5–34 kg/m^2. Subjects were either healthy or had mild, moderate or severe renal impairment.
(§2) Subjects were assigned to the renal impairment strata based on assessment during pre-study screening. For study A, strata assignment was based on CLcr calculated using the Cockcroft-Gault (C–G) equation [12] […] For study B, assignment was based on the estimated glomerular filtration rate (eGFR) using the Modification of Diet in Renal Disease formula [13] […] Summary statistics for Study B were also prepared using the C–G equation [12] with and without normalization to body surface area. Creatinine assays were performed at each clinical site using UV absorbance assays at 512 nm to detect the yellow–red complex formed from the reaction of creatinine and picric acid under alkaline conditions.
(§3) In subjects with end-stage renal disease (ESRD), haemodialysis was initiated 2–4 h after study drug administration (study A only). Haemodialysis sessions were 4 h in duration, and when possible, a similar type of dialyzer at a similar blood flow rate was used across haemodialysis subjects.
(§4) Blood samples (5–6 ml) were collected in sodium heparin glass tubes and stored chilled until the plasma was harvested by centrifugation and stored at approximately –70 °C or below until transferred frozen to a central laboratory for analysis. For subjects with varying degrees of renal impairment, samples were collected in study A pre-infusion, at 1, 2, 4, 6, 8, 12, 24, 36 and 48 h after the start of infusion for all groups and also at 72 and 96 h post-infusion for subjects with severe renal impairment or ESRD. In study B, samples were collected pre-infusion and at 0.5, 1, 1.5, 2, 3, 4, 6, 8, 10, 12, 16, 24, 36, 48, 60, 72, 84 and 96 h post-dose.
(§5) The method was linear over the range 0.25–100 μg/ml and the lower limit of quantification (LLQ) was 0.25 μg/ml. Dialysate samples from study A were analysed at a separate central laboratory (Covance Laboratories, Madison, WI, USA) using a similar validated LC–MS method. […] Study samples outside the calibration range were diluted and re-assayed. Dilution QC samples were included in batches where samples were diluted prior to analysis.
(§6) The CL reported for ESRD is the CL for the subjects (i.e., includes residual clearance and any dialysis clearance).

[5] = not given; remark: listed apart in the source
clinical = settings: both, human, in vivo, iv, 7.5 mg/kg
From the text: as §1, §2, §3, §4, §5, §6

[6] = study A, ESRD
Protocol: as §3
For subjects with ESRD (study A), a sample from the inflow to the dialyzer on the arterial side was collected before dialysis and at 1, 2, 3 and 4 h after the start of dialysis; dialysate fluid samples (10 ml) were collected before and at 30-min intervals during dialysis. Plasma samples were also collected at 0, 60, 120, 180 and 240 min following the start of dialysis.
as §5
Dialyzers used included the PSN 210 and the 2K 2.5 Dialysate (both Gambro). The dialysate flow rate was 800 mL/min, and blood flow rates in patients ranged from 300 to 500 mL/min.

[7] = data on file, cited from earlier work
[8] = human, in vivo
From the text: as §1, §2, §3, §4, §5, §6

[9] = study B, single 1-h i.v. infusion telavancin 10 mg/kg, plasma, mild RI (eGFR 60 to 89 mL/min/1.73 m^2), n = 13, mean ± SD
[10] = study B, single 1-h i.v. infusion telavancin 10 mg/kg, plasma, normal renal function (eGFR ≥90 mL/min/1.73 m^2), n = 14, mean ± SD
[11] = study B, single 1-h i.v. infusion telavancin 10 mg/kg, plasma, severe RI (eGFR 15 to 29 mL/min/1.73 m^2), n = 8, mean ± SD
[12] = subjects with severe renal impairment or ESRD, stated for both studies

## CCCCCCCCCCNCCN[C@@]1(C)C[C@H](O[C@H]2[C@H](Oc3c4cc5cc3Oc3ccc(cc3Cl)[C@@H](O)[C@@H](NC(=O)[C@@H](CC(C)C)NC)C(=O)N[C@@H](CC(N)=O)C(=O)N[C@H]5C(=O)N[C@H]3C(=O)N[C@H](C(=O)N[C@H](C(=O)O)c5cc(O)c(CNCP(=O)(O)O)c(O)c5-c5cc3ccc5O)[C@H](O)c3ccc(c(Cl)c3)O4)O[C@H](CO)[C@@H](O)[C@@H]2O)O[C@@H](C)[C@H]1O [telavancin]
Stated after the study B findings, study not given
  serious adverse events: No serious adverse events were reported
Study B, all subjects, 7/43
  subjects reporting treatment-emergent adverse events (TEAEs): 16.3%
Study B, mild renal impairment, 1/13
  subjects reporting treatment-emergent adverse events (TEAEs): 7.7%
Study B, moderate renal impairment, 2/8
  subjects reporting treatment-emergent adverse events (TEAEs): 25%
Study B, normal renal function, 0/14
  subjects reporting treatment-emergent adverse events (TEAEs): 0%
Study B, severe impairment, 4/8
  subjects reporting treatment-emergent adverse events (TEAEs): 50%
Study B, single i.v. infusion 10 mg/kg, normal renal function and varying degrees of renal impairment
  tolerability: well tolerated
Study B, three subjects of 43 (two severe, one moderate renal impairment), mild and transient
  subjects with ECG QT prolongation: 7.0%
Study B, two subjects of 43, mild and transient
  subjects with increased blood lactate dehydrogenase: 4.7%
[1]
  half-life: 6.5 h
[1]; [9]
  AUC(0-inf): 606 µg·h/mL
  clearance: 0.253 mL/min/kg
[1]; study B, single 1-h i.v. infusion telavancin 10 mg/kg, plasma, moderate RI (eGFR 30 to 59 mL/min/1.73 m^2), n = 8, mean ± SD
  AUC(0-inf): 936 µg·h/mL
[1]; [10]
  AUC(0-inf): 539 µg·h/mL
  clearance: 0.283 mL/min/kg
[1]; [11]
  AUC(0-inf): 1400 µg·h/mL
  clearance: 0.108 mL/min/kg
[1]; study B, single 1-h i.v. infusion telavancin 10 mg/kg, mild RI (eGFR 60 to 89 mL/min/1.73 m^2), n = 13, mean ± SD
  Cmax: 74.2 µg/mL
[1]; study B, single 1-h i.v. infusion telavancin 10 mg/kg, normal renal function (eGFR ≥90 mL/min/1.73 m^2), n = 14, mean ± SD
  Cmax: 76.7 µg/mL
[1]; study B, single 1-h i.v. infusion telavancin 10 mg/kg, severe RI (eGFR 15 to 29 mL/min/1.73 m^2), n = 8, mean ± SD
  Cmax: 83.2 µg/mL
[1]; t ½ (terminal elimination half-life), study B, single 1-h i.v. infusion telavancin 10 mg/kg, plasma, mild RI (eGFR 60 to 89 mL/min/1.73 m^2), n = 13, mean ± SD
  half-life: 7.8 h
[1]; t ½ (terminal elimination half-life), study B, single 1-h i.v. infusion telavancin 10 mg/kg, plasma, severe RI (eGFR 15 to 29 mL/min/1.73 m^2), n = 8, mean ± SD
  half-life: 11.8 h
[1]; study B, mild renal impairment
  increase in systemic exposure (AUC0–∞) compared with healthy subjects: 12%
[1]; study B, moderate renal impairment
  increase in systemic exposure (AUC0–∞) compared with healthy subjects: 74%
[1]; study B, severe renal impairment
  increase in systemic exposure (AUC0–∞) compared with healthy subjects: 160%
[1]; study B, single 1-h i.v. infusion telavancin 10 mg/kg, moderate RI (eGFR 30 to 59 mL/min/1.73 m^2), n = 8, mean ± SD
  C max (maximum plasma concentration): 78.0 ± 4.5 µg/mL
[2]; after a single i.v. administration of 10 mg/kg
  excreted intact in urine: 82%
[2]; healthy adult volunteers, 7.5–15 mg/kg/day i.v. infusion, averaging
  elimination half-life (t½): ~7 h
[3]; mild renal impairment
  CLR (renal clearance): 0.147 ± 0.055 mL/min/kg
  Ae0–∞ (amount excreted in the urine extrapolated to infinity): 396 ± 100 mg
[3]; moderate renal impairment
  CLR (renal clearance): 0.0783 ± 0.0267 mL/min/kg
  Ae0–∞ (amount excreted in the urine extrapolated to infinity): 375 ± 96 mg
[3]; normal renal function
  CLR (renal clearance): 0.17 ± 0.03 mL/min/kg and 0.175 ± 0.0317 mL/min/kg
  Ae0–∞ (amount excreted in the urine extrapolated to infinity): 435 ± 91 mg
[3]; severe renal impairment
  CLR (renal clearance): 0.03 ± 0.01 mL/min/kg and 0.0317 ± 0.012 mL/min/kg
  Ae0–∞ (amount excreted in the urine extrapolated to infinity): 208 ± 60 mg
[3]; both, Ae0-t % (percentage of the dose excreted in urine), urine 0–96 h, mild renal impairment
  dose excreted: 58.2 ± 11.5%
[3]; both, Ae0-t % (percentage of the dose excreted in urine), urine 0–96 h, moderate renal impairment
  dose excreted: 48.4 ± 8.7%
[3]; both, Ae0-t % (percentage of the dose excreted in urine), urine 0–96 h, normal renal function
  dose excreted: 62.8 ± 9%
[3]; both, Ae0–∞% (percentage of the dose excreted in urine, extrapolated to infinity), normal renal function
  dose excreted: 62.7 ± 9.1%
[3]; Ae0–∞% (percentage of the dose excreted in urine, extrapolated to infinity), mild renal impairment
  dose excreted: 58.2 ± 11.6%
[3]; Ae0–∞% (percentage of the dose excreted in urine, extrapolated to infinity), moderate renal impairment
  dose excreted: 48.4 ± 9.3%
[3]; Ae0–∞% (percentage of the dose excreted in urine, extrapolated to infinity), severe renal impairment
  dose excreted: 28.2 ± 3.9%
[3]; urine 0–96 h, severe renal impairment
  Ae0-t % (percentage of the dose excreted in urine): 28.0 ± 4.3%
Plasma proteins; ESRD on dialysis, n = 6
  Protein binding (%): 87.6 ± 1.0/0%
Plasma proteins; mild RI (CLcr 51–80 mL/min), n = 6
  Protein binding (%): 87.5 ± 1.0%
Plasma proteins; moderate RI (CLcr 30–50 mL/min), n = 6
  Protein binding (%): 87.8 ± 1.1%
Plasma proteins; normal renal function (CLcr >80 mL/min), n = 6
  Protein binding (%): 86.5 ± 1.3%
Plasma proteins; severe RI (CLcr <30 mL/min), n = 4
  Protein binding (%): 86.7 ± 1.2%
Plasma proteins; study A pre-dose plasma, all renal impairment groups
  average binding to plasma proteins: approximately 87%
[4]; both, human, in vivo, iv, 7.5 mg/kg, CL (clearance), study A, single 1-h i.v. infusion telavancin 7.5 mg/kg, plasma, ESRD, n = 6, includes residual clearance and any dialysis clearance, mean ± SD
  clearance: 0.136 mL/min/kg
[4]; study A, 7.5 mg/kg, ESRD group
  increase in systemic exposure (AUC0–∞) compared with healthy subjects: 79%
[4]; study A, 7.5 mg/kg, mild renal impairment
  increase in systemic exposure (AUC0–∞) compared with healthy subjects: 13%
[4]; study A, 7.5 mg/kg, moderate renal impairment
  increase in systemic exposure (AUC0–∞) compared with healthy subjects: 29%
[4]; study A, 7.5 mg/kg, severe renal impairment
  increase in systemic exposure (AUC0–∞) compared with healthy subjects: 118%
[4]; [12]
  change of t1/2: almost doubled
  reduction of mean plasma CL: more than 50%
[5]; study A, ESRD, 2/6
  subjects reporting treatment-emergent adverse events (TEAEs): 33%
[5]; study A, all subjects, 17/29
  subjects reporting treatment-emergent adverse events (TEAEs): 59%
[5]; study A, mild renal impairment, 4/7
  subjects reporting treatment-emergent adverse events (TEAEs): 57%
[5]; study A, moderate renal impairment, 3/6
  subjects reporting treatment-emergent adverse events (TEAEs): 50%
[5]; study A, normal renal function, 5/6
  subjects reporting treatment-emergent adverse events (TEAEs): 83%
[5]; study A, severe impairment, 3/4
  subjects reporting treatment-emergent adverse events (TEAEs): 75%
[5]; study A, single i.v. infusion 7.5 mg/kg, normal renal function and varying degrees of renal impairment
  tolerability: well tolerated
[5]; ten subjects with various degrees of renal impairment, study not given
  audiology assessments: no clinically significant abnormalities
clinical
  Cmax: 70.6 ± 11.2 µg/mL
[6]
  dialysis clearance as share of clearance in normal subjects (total body CL): approximately 25%
[6]; 7.5 mg/kg, 4-h haemodialysis on the day of administration, dialysate flow 800 mL/min
  total administered dose removed by dialysis session: approximately 6%
[6]; CLHD = QD × (CTLV – DTLV) ÷ CTLV, dialysate flow 800 mL/min, estimated
  dialysis clearance: 4.5 mL/min
[6]; same value in ml/h
  dialysis clearance: 4.52 mL/min

## hydroxypropylbetadex
[7]; previously studied patients with severe renal impairment
  t½: 15.6 ± 6.0 h
[7]; subjects with normal renal function
  t½: 2.5 ± 0.84 h
[8]
  CL (clearance): 9.8 ± 4.3/0 mL/h/kg
